Laboratory results published in PMC2767189 (Clinical Pharmacology and Therapeutics, 2008).
Several values for one entry are separate records, joined by “and”; a condition that tells them apart may be missing. Equal entries are not always repeated. Where two headings read alike, the source gives them in different places.

What was measured:
[1] = cited from earlier work
[2] = target: HIV-1 reverse transcriptase; conditions: cited from earlier work
[3] = Intracellular triphosphate; format: in vivo, human; conditions: median ratio, 4 h after dose vs predose; all subjects
clinical = conditions: human, plasma, oral, 300 mg, 300 mg twice daily; for AUC: ABC AUC; for Cmax: ABC Cmax; for Vd/F: ABC Vd/F (volume of distribution); for half-life: ABC half-life
[4] = 300 mg twice daily
[5] = cited from earlier work; remark: listed apart in the source

For Nc1nc(=O)c2ncn([C@H]3C=C[C@@H](COP(=O)(O)OP(=O)(O)OP(=O)(O)O)C3)c2[nH]1 [Carbovir-TP, carbovir-triphosphate], the “intracellular carbovir-TP concentrations” value ([1]; range reported from previous studies) is listed as 4-290 fmol/10^6 cells, the “carbovir-TP reverse transcriptase Ki expressed as intracellular amount” value ([2]; equivalent of 21 nmol/l) is listed as ~ 10 fmol/10^6 cells and the Ki ([2]; read-out: carbovir-TP reverse transcriptase Ki, ex vitro) is listed as 21 nM. The “C4/C0 ratio of intracellular TP concentrations” value (from here on “C4/C0 ratio”) [3] was 1.89 and 1.9.
Nc1nc(NC2CC2)c2ncn([C@H]3C=C[C@@H](CO)C3)c2n1 [ABC, abacavir] showed an AUC (clinical; mean (SD), <18 years (n = 15)) of 7350 ng·h/mL, an AUC (clinical; mean (SD), Total (n = 30)) of 7480 ng·h/mL and an AUC (clinical; mean (SD), ≥18 years (n = 15)) of 7610 ng·h/mL. For the same compound, the AUC (clinical; median, <18 years (n = 15)) was 7010 ng·h/mL, the AUC (clinical; median, Total (n = 30)) was 6720 ng·h/mL and the AUC (clinical; median, ≥18 years (n = 15)) was 6590 ng·h/mL. The Cmax (clinical; mean (SD), <18 years (n = 15)) was 2790 ng/mL, the Cmax (clinical; mean (SD), Total (n = 30)) was 2860 ng/mL and the Cmax (clinical; mean (SD), ≥18 years (n = 15)) was 2940 ng/mL. The Cmax (clinical; median, <18 years (n = 15)) was 2580 ng/mL, the Cmax (clinical; median, Total (n = 30)) was 2620 ng/mL and the Cmax (clinical; median, ≥18 years (n = 15)) was 2740 ng/mL. The Vd/F (clinical; mean (SD), <18 years (n = 15)) was 82.9 L and 1.35 L/kg, the Vd/F (clinical; mean (SD), Total (n = 30)) was 77.8 L and 1.19 L/kg and the Vd/F (clinical; mean (SD), ≥18 years (n = 15)) was 72.8 L and 1.04 L/kg. For the same compound, the Vd/F (clinical; median, <18 years (n = 15)) was 67.1 L and 0.9 L/kg, the Vd/F (clinical; median, Total (n = 30)) was 71.5 L and 1.05 L/kg and the Vd/F (clinical; median, ≥18 years (n = 15)) was 73.5 L and 1.1 L/kg. It also gave a half-life (clinical; mean (SD), <18 years (n = 15)) of 1.23 h, a half-life (clinical; mean (SD), Total (n = 30)) of 1.19 h and a half-life (clinical; mean (SD), ≥18 years (n = 15)) of 1.14 h. For the same compound, the half-life (clinical; median, <18 years (n = 15)) was 1.22 h, the half-life (clinical; median, Total (n = 30)) was 1.23 h and the half-life (clinical; median, ≥18 years (n = 15)) was 1.34 h. The “ABC CL/F (apparent oral clearance)” value ([4]; mean (SD), <18 years (n = 15)) was 47.47 (19.52) l/h, the “ABC CL/F adjusted for body surface area” value ([4]; mean (SD), <18 years (n = 15)) was 481.60 (192.62) ml/min/m^2 and the “ABC CL/F adjusted for weight” value ([4]; mean (SD), <18 years (n = 15)) was 13.03 (5.31) ml/min/kg. For the same compound, the “ABC CL/F (apparent oral clearance)” value ([4]; mean (SD), Total (n = 30)) was 45.44 (16.87) l/h, the “ABC CL/F adjusted for body surface area” value ([4]; mean (SD), Total (n = 30)) was 437.77 (168.51) ml/min/m^2 and the “ABC CL/F adjusted for weight” value ([4]; mean (SD), Total (n = 30)) was 11.73 (4.84) ml/min/kg. For the same compound, the “ABC CL/F (apparent oral clearance)” value ([4]; mean (SD), ≥18 years (n = 15)) was 43.40 (14.13) l/h, the “ABC CL/F adjusted for body surface area” value ([4]; mean (SD), ≥18 years (n = 15)) was 393.93 (132.66) ml/min/m^2 and the “ABC CL/F (apparent oral clearance)” value ([4]; median, <18 years (n = 15)) was 42.80 L/h. The “ABC CL/F adjusted for body surface area” value ([4]; median, <18 years (n = 15)) was 382.00 ml/min/m^2, the “ABC CL/F (apparent oral clearance)” value ([4]; median, Total (n = 30)) was 44.70 L/h and the “ABC CL/F adjusted for body surface area” value ([4]; median, Total (n = 30)) was 390.50 ml/min/m^2. For the same compound, the “ABC CL/F (apparent oral clearance)” value ([4]; median, ≥18 years (n = 15)) was 45.50 L/h, the “ABC CL/F adjusted for body surface area” value ([4]; median, ≥18 years (n = 15)) was 399.00 ml/min/m^2 and the “observed clearance seen in adults (reference value for hypothesis test on AUC)” value ([5]; adults, reference not printed at the place) was 6000 ng·h/mL. For the same compound, the “abacavir steady-state AUC” value ([5]; older adults, 300 mg twice daily (~4 mg/kg)) was 5000 to 6000 ng·h/mL and the “abacavir weight-adjusted apparent oral clearance” value ([5]; translated from 0.86 l/min for a 70-kg adult, ref 12 (McDowell et al.)) was 12.3 mL/min/kg.
For Nc1ccn([C@@H]2CS[C@H](COP(=O)(O)OP(=O)(O)OP(=O)(O)O)O2)c(=O)n1 [Lamivudine-TP, lamivudine triphosphate], the “intracellular lamivudine-TP average concentrations” value ([1]; range of averages in previous studies) is listed as 1.7-8.6 pmol/10^6 cells and the “C4/C0 ratio” value [3] is listed as 1.31 and 1.3.
For Cc1cn([C@H]2C[C@H](N=[N+]=[N-])[C@@H](CO[P@](=O)(O)O[P@](=O)(O)OP(=O)(O)O)O2)c(=O)[nH]c1=O [Zidovudine-TP, zidovudine triphosphate], the “intracellular zidovudine-TP concentrations” value ([1]; range seen in previous studies) is given as 6.3-58 fmol/10^6 cells and the “C4/C0 ratio” value [3] is given as 1.95.
